Measured values reported in publication PMC7614720 (European journal of medicinal chemistry, 2021).

Experiments:
OXA-48 = OXA-48 (Klebsiella pneumoniae, UniProt Q6XEC0); assay: 1H NMR of enzymatic hydrolysis products; assay type: biochemical
NDM-1 = NDM-1 (Klebsiella pneumoniae, UniProt C7C422); assay: 1H NMR of enzymatic hydrolysis products; assay type: biochemical
NDM-1, sequence (C7C422 29-270, looked up): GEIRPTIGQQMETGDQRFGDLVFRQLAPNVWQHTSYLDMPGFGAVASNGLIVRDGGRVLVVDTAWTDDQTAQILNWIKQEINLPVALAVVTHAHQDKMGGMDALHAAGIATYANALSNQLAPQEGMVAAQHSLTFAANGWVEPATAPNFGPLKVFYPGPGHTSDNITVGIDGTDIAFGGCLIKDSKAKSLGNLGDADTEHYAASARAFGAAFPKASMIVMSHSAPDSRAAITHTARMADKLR

OXA-48, sequence (Q6XEC0 23-265 limits assumed): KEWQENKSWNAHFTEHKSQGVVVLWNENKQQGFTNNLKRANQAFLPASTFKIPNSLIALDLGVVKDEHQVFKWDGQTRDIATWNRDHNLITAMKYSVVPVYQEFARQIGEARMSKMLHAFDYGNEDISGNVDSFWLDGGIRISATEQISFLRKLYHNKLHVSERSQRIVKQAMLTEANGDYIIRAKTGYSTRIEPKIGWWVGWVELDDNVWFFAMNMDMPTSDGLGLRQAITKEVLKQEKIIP

Question: With C[C@@H](O)[C@H]1C(=O)N2C(C(=O)O)=C([C@H]3CCCO3)S[C@H]12 [faropenem] as the compound, how does the “1H NMR of enzymatic hydrolysis products (5 μM enzyme, 55 min)” value (OXA-48) read?
Answer: The value was “the class D SBLs OXA-10, OXA-23 and OXA-48 and the B1 MBLs NDM-1 and VIM-1”.

Question: And the “1H NMR of enzymatic hydrolysis products (5 μM enzyme, 5 min)” value (NDM-1)?
Answer: The value was “we subsequently studied the reaction of faropenem with other SBLs/MBLs”.
